According to patent US7115614B2, “Method of treating brain ischemia” (Kyowa Hakko Kogyo Co., Ltd., priority 1997, dated 2006):
Where “and” joins values, the source holds several entries; their conditions need not be identical. Equal values may be shown once.

Assays:
dopaminergic neurons = assay: Inhibitory action on neurodegeneration: MPTP HCl-treated mice, specific [3H]-mazindol binding in the striatum; assay type: in vivo, C57BL/6NCrj mice; conditions: for amount of specifically bound [3H]-mazindol in the striatum: striatum removed after 1 week, mean ± standard error
Experimental: The experiment was conducted according to the method of Sundstrom et al. (Brain. Res. Bulletin, 21, 257–263 (1988)).
In the experiment, 9- to 10-week-old male C57BL/6NCrj mice (supplied by Nippon Charles River) were used. During the period of preliminary breeding, the animals were kept in a laboratory at room temperature (22 to 24° C.) under 50 to 60% humidity and allowed food and water ad libitum.
1-Methyl-4-phenyl-1,2,3,6-tetrahydropyridine hydrochloride (abbreviated hereinafter as MPTP HCl (RBI Co., Ltd.)) was dissolved at a concentration of 4 mg/ml in physiological saline. A test compound was suspended at a concentration of 1 mg/ml in 0.3% […]. Each test group consisted of 9 to 10 animals, and a control group was intraperitoneally given physiological saline, and an MPTP HCl administration group and an MPTP HCl+test compound administration group were intraperitoneally given MPTP HCl (40 mg/kg).
After 1 hour, the control group and the MPTP HCl administration group were orally given 0.3% Tween, and the MPTP HCl+test compound administration group was orally given the test compound (10 mg/kg). After 1 week, the animals were decapitated, and the striatum was removed therefrom under cooling on ice. The striatum was stored in a deep freezer (<−80° C.) before a binding experiment.
A [^3H]-mazindol binding test was conducted in the following method. A striatum and 300 μl of buffer (120 mM NaCl, 5 mM KCl, 50 mM Tris, pH 7.9) were put into a micro-centrifuge tube and homogenized by portable homogenizer S-203 (manufactured by Ikeda Rika) and centrifuged at 15,000 rpm, 4° C. for 5 minutes (by KUBOTA 1710). The precipitates were suspended in 300 μl of buffer and then centrifuged again at 15,000 rpm, 4° C. for 5 minutes. The precipitates were suspended in 500 μl of buffer and then distributed into four test tubes in 100 μl portions. The remaining suspension (100 μl) was used for protein quantification. To determine non-specific binding, nomifensine maleate (RBI Co., Ltd.) (final concentration: 10 μM) as an inhibitor of dopamine uptake was added to two test tubes among the four test tubes. The binding reaction was initiated by adding 25 μl of [^3H]-mazindol (final concentration: 10 nM) (Spec. Act. 888 GBq/mmol, a product of NET). The mixture was incubated for 1 hour under cooling on ice, and the striatum homogenate was adsorbed onto a glass filter (Whatman, GF/B) in a cell harvester and washed three times with 5 ml of buffer. The radioactivity on the glass filter was measured with a liquid scintillation counter. For each striatum, specific [^3H]-mazindol binding was determined by subtracting the average of non-specific [^3H]-mazindol binding from the average of total [^3H]-mazindol binding.
Protein quantification was conducted by use of a Bio-Rad DC protein assay kit (Bio-Rad Co., Ltd.) with bovine serum albumin (Sigma Co., Ltd.) as a standard. Specific [^3H]-mazindol binding was expressed as the amount of bound [^3H]-mazindol per unit weight of protein, and the mean±standard error was determined for each group (10 animals).
In Table 2, the results are expressed in terms of the amount of specifically bound [^3H]-mazindol (fmol/mg protein) in the striatum.

dd-strain male mice = assay: Acute toxicity test (minimum lethal dose); assay type: in vivo; conditions: oral administration, mortality seven days after the administration
Text: Test compounds were orally or intraperitoneally administered to groups of dd-strain male mice weighing 20±1 g, each group consisting of three mice.

[1] = MPTP HCl 40 mg/kg i.p., test compound 10 mg/kg orally after 1 hour

SMILES	amount of specifically bound [3H]-mazindol in the striatum (dopaminergic neurons; [1]) [fmol/mg protein]	reduction of the amount of specifically bound [3H]-mazindol by administration of MPTP HCl (dopaminergic neurons; statement in words, 10 mg/kg orally, MPTP HCl mice)	minimum lethal dose (MLD) (dd-strain male mice)	amount of specifically bound [3H]-mazindol in the striatum (dopaminergic neurons; MPTP HCl 40 mg/kg i.p. alone (0.3% Tween orally after 1 hour), hydrochloride)
CCn1c(=O)c2c(nc(/C=C/c3ccc(OC)c(OC)c3)n2C)n(CC)c1=O [Compound 1, (E)-1,3-diethyl-8-(3,4-dimethoxystyryl)-7-methylxanthine]	950.9 ± 54.1	inhibited	greater than 1000 mg/kg	–
CCCn1c(=O)c2c(nc(/C=C/c3ccc(OC)c(OC)c3)n2C)n(CCC)c1=O [Compound 2, (E)-8-(3,4-dimethoxystyryl)-1,3-dipropyl-7-methylxanthine]	784.8 ± 41.6	–	–	–
CCn1c(=O)c2c(nc(/C=C/c3cc(OC)c4c(c3)OCO4)n2C)n(CC)c1=O [Compound 3, (E)-1,3-diethyl-8-(3-methoxy-4,5-methylenedioxystyryl)-7-methylxanthine]	794.9 ± 28.5	–	–	–
COc1cc(/C=C/c2nc3c(c(=O)n(C)c(=O)n3C)n2C)cc(OC)c1OC [Compound 4, (E)-8-(3,4,5-trimethoxystyryl)caffeine]	923.5 ± 51.1	–	–	–
CN1CC=C(c2ccccc2)CC1.Cl [MPTP HCl, 1-Methyl-4-phenyl-1,2,3,6-tetrahydropyridine hydrochloride, reference compound]	–	–	–	674.2 ± 38.1 fmol/mg protein and 616.3 ± 32.8 fmol/mg protein and 621.2 ± 27.7 fmol/mg protein
